This test relates to Plasmodium falciparum. The test is described as follows: Antimalarial activity against chloroquine sensitive Plasmodium falciparum FCR-3. It counts as functional. As to conditions: FCR-3/Gambia.
For `O=C1c2cnc3ccccc3c2C(=O)c2c1c1ccccc1n2CCO`, the concentration for half-maximal inhibition (IC50) (usually the concentration at which inhibition is half-maximal) stood at 330 nM.
For the molecule `O=C1c2c[n+]([O-])c3ccccc3c2C(=O)c2[nH]c3ccccc3c21` [CALOTHRIXIN A], the IC50 was found to be 185 nM.
As for `O=C1c2c[n+]([O-])c3ccccc3c2C(=O)c2c1c1ccccc1n2CCO`, the IC50 amounted to 250 nM.
`Cn1c2c(c3ccccc31)C(=O)c1cnc3ccccc3c1C2=O` came in with an IC50 of 490 nM.
In turn, `CC(C)n1c2c(c3ccccc31)C(=O)c1c[n+]([O-])c3ccccc3c1C2=O` returned an IC50 of 320 nM.
The figure for `CCn1c2c(c3ccccc31)C(=O)c1cnc3ccccc3c1C2=O` is 2200 nM.
The figure for `O=C1c2[nH]c3ccccc3c2C(=O)c2cnc3ccccc3c21` [CALOTHRIXIN B] is 120 nM.
Then `CC(C)n1c2c(c3ccccc31)C(=O)c1cnc3ccccc3c1C2=O`, with 6400 nM.
For the molecule `CCn1c2c(c3ccccc31)C(=O)c1c[n+]([O-])c3ccccc3c1C2=O`, the IC50 came out at 380 nM.
On to `Cn1c2c(c3ccccc31)C(=O)c1c[n+]([O-])c3ccccc3c1C2=O`, for which the IC50 turned out to be 380 nM.

The values are drawn from ChEMBL document CHEMBL2046338, “Synthesis and antimalarial activity of calothrixins A and B, and their N-alkyl derivatives” (Bioorg Med Chem Lett, 2012).
